Values quoted from earlier work, collected in patent US20080160086A1, “Delivery Systems For Calcium” (Scepter Holdings, Inc., priority 2004, published 2008).

Details: in humans; U.S. Pat. No. 6,582,722

In the case of “calcium picolinate [calcium picolinate chelate]”, the bioavailability is given as “high bioavailability”.
